{"source": "paper PMC12376128", "about": "“In vitro and In Vivo Drug Metabolism Analysis of BPI-460372 - A Covalent TEAD1/3/4 Inhibitor” (Current Drug Metabolism, 2025)", "key": {"[1]": {"target": "T1, CYP2B6 (Homo sapiens, UniProt P20813)", "T1 construct": "HLMs (1 mg protein·mL^-1); tissue BioIVT; host or cells: pooled human liver microsomes", "T1 sequence (P20813 1-491)": "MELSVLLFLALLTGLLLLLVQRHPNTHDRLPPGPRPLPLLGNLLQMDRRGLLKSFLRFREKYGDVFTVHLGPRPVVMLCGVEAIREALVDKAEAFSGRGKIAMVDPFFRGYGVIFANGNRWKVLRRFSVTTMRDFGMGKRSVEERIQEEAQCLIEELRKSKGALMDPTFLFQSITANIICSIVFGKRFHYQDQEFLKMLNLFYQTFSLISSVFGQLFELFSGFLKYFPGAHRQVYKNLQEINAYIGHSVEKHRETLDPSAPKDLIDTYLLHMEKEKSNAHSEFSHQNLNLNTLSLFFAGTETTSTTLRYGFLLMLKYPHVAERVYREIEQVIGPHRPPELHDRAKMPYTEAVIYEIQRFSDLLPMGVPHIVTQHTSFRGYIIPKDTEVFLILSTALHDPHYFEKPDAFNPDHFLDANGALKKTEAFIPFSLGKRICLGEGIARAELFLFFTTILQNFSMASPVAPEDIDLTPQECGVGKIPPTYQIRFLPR", "assay": "Metabolic stability in HLMs with or without specific CYP inhibitor (ticlopidine 20 µM)", "assay_type": "in vitro ADME", "settings": "HLMs 1 mg protein/mL, substrate 1 μM", "experimental": "Before starting the experiments, the HLMs were thawed gently on ice. Metabolic stability incubations were performed at 37 °C. […] The incubation process started with the addition of NADPH (1 mM final concentration) after a 5-minute preincubation period. The chemical inhibitors were as follows: a-naphthoflavone (2 µM) for CYP1A2, ticlopidine (20 µM) for 2B6, quercetin (20 µM) for CYP2C8, sulfaphenazole (20 µM) for CYP2C9, ticlopidine (200 µM) for CYP2C19, quinidine (20 µM) for CYP2D6, and ketoconazole (20 µM) for CYP3A [9]. Aliquots were maintained in acetonitrile containing internal standard (IS) at various time points, such as 0 min, 5 min, 10 min, 20 min, 30 min, and 60 min. All incubations were performed in triplicate, and the concentration in the supernatant was determined by liquid chromatography-tandem mass spectrometry (LC-MS/MS).\nThe elimination rate constant k (min^-1) was obtained by linear regression from the natural logarithm of the […] of the parent drug and the incubation time. The inhibition rate was calculated using equation 1 [10]: […]"}, "[2]": {"assay": "In vivo clearance", "settings": "monkeys"}, "[3]": {"parameters": "method as in doi:10.1158/1538-7445.AM2024-7575", "settings": "cited from earlier work"}, "[4]": {"assay": "Stability in plasma", "assay_type": "in vitro ADME", "settings": "rat plasma, 37°C, 4 h"}, "[5]": {"target": "CYP2D6 (Homo sapiens, UniProt P10635)", "sequence (P10635 whole entry, canonical isoform)": "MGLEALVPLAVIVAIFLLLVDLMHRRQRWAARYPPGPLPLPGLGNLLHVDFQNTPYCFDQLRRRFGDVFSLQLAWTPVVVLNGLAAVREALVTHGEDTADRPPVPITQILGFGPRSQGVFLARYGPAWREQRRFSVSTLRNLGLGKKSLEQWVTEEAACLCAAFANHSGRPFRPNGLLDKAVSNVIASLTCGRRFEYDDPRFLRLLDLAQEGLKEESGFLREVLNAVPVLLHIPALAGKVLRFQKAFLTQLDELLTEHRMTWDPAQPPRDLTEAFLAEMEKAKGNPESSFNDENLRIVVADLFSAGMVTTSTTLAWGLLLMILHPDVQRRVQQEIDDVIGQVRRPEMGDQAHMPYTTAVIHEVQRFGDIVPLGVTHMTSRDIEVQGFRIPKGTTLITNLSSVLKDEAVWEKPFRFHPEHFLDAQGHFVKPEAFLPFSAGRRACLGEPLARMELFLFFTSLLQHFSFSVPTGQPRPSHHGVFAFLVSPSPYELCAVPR", "assay": "Metabolic stability in recombinant human CYP isoenzymes", "assay_type": "in vitro ADME", "parameters": "purchased Cypex Ltd. (Dundee, UK)", "settings": "rCYP2D6 100 pmol P450/mL, 1 µM", "experimental": "(§1) To identify the specific isoform that participates in the metabolism of BPI-460372, 1 µM BPI-460372 or positive control substrates were mixed with recombinant human CYP1A2, 2B6, 2C8, 2C9, 2C19, 2D6 or 3A4 (100 pmol P450·mL^-1), and the reaction was started by the addition of NADPH (1 mM final concentration) after 5-minute preincubation at 37°C. Aliquots were maintained in acetonitrile containing IS at different time points at 0 min, 5 min, 10 min, 20 min, 30 min, and 60 min. All incubations were performed in triplicate, and the concentration of the supernatant was determined by LC-MS/MS.\n(§2) A substrate depletion approach was employed to determine the intrinsic clearance (CLint (rCYPj)) for each isoform. The contribution of each isoform was estimated using equations 2 and 3. CYPj abundance was evaluated as the abundance (CYPj) of each isoform in HLMs (pmol/mg protein)."}, "[6]": {"target": "T2, CYP1A2 (Homo sapiens, UniProt P05177)", "T2 sequence (P05177 1-516)": "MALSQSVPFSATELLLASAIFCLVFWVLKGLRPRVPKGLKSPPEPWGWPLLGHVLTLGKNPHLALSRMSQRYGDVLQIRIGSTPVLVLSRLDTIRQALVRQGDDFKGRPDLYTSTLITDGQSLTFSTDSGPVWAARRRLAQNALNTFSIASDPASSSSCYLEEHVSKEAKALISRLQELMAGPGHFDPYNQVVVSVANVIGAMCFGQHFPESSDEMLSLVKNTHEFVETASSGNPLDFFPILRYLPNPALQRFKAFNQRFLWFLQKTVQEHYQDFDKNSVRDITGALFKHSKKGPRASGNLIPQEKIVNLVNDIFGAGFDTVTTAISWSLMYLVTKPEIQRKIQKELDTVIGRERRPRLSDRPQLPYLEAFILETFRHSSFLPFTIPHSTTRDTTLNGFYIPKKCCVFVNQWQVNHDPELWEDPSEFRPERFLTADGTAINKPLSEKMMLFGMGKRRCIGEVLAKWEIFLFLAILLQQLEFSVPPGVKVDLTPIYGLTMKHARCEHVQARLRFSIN", "assay": "Metabolic stability in recombinant human CYP isoenzymes", "assay_type": "in vitro ADME", "parameters": "purchased Cypex Ltd. (Dundee, UK)", "settings": "rCYP1A2 100 pmol P450/mL, 1 µM", "experimental": "as §1, §2"}, "[7]": {"target": "CYP2C9 (Homo sapiens, UniProt P11712)", "sequence (P11712 whole entry)": "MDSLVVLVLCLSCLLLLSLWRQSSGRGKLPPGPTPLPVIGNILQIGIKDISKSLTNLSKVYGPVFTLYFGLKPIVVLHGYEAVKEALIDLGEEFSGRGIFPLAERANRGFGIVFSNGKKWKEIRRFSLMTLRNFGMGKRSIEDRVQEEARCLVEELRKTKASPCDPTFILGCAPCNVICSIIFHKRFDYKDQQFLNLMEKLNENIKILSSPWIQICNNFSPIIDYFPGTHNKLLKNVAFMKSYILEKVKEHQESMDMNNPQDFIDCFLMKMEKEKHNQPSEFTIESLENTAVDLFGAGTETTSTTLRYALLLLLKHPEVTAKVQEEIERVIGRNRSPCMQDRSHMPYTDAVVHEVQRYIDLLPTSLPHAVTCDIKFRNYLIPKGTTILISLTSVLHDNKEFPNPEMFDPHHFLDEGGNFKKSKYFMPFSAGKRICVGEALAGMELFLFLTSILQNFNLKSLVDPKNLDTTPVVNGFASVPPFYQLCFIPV", "assay": "Metabolic stability in recombinant human CYP isoenzymes", "assay_type": "in vitro ADME", "parameters": "purchased Cypex Ltd. (Dundee, UK)", "settings": "rCYP2C9 100 pmol P450/mL, 1 µM", "experimental": "as §1, §2"}, "[8]": {"assay": "Stability in plasma", "assay_type": "in vitro ADME", "settings": "human plasma, 37°C, 4 h"}, "[9]": {"assay": "4-week toxicity study", "assay_type": "in vivo", "settings": "rats"}, "[10]": {"assay": "Stability in plasma", "assay_type": "in vitro ADME", "settings": "dog plasma, 37°C, 4 h"}}, "data": [{"smiles": "C=C(F)C(=O)N1CC(n2c(=O)n(-c3ccc(C(F)(F)F)cc3)c3nccnc32)C1", "note": "[BPI-460372]", "values": [{"measurement": "Inhibition Rate", "setting": "[1]", "value": -11.5, "unit": "%"}, {"measurement": "Clearance in vivo", "setting": "[2]", "value": "low clearance"}, {"measurement": "Preliminary efficacy", "setting": "[3]; patients with malignant mesothelioma, lung adenocarcinoma, and lung squamous cell carcinoma", "value": "preliminary efficacy was observed"}, {"measurement": "Safety profile", "setting": "[3]; solid tumor patients", "value": "good safety profile"}, {"measurement": "Stability in plasma", "setting": "[4]", "value": "stable"}, {"measurement": "Contribution", "setting": "[5]", "value": 43.6, "unit": "%"}, {"measurement": "Contribution", "setting": "[6]", "value": 13.1, "unit": "%"}, {"measurement": "Contribution", "setting": "[7]", "value": 6.3, "unit": "%"}, {"measurement": "Stability in plasma", "setting": "[8]", "value": "stable"}, {"measurement": "Main target organs", "setting": "[9]", "value": "kidney"}, {"measurement": "Stability in plasma", "setting": "[10]", "value": "stable"}]}]}
